Results on 20 molecules are retold here after PubChem BioAssay (NCI).

Some test systems named below: CCRF-CEM leukemia; DU-145 prostate; EKVX NSCLC; OVCAR-5 ovarian; SF-539 CNS; SNB-19 CNS.
Test in all cases: growth of human tumour cells (NCI), 48 h

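Five compound concentrations were applied to cells in 96-well plates for 48 hours; endpoints were derived by simple linear interpolation of the resulting dose-response curve. GI50: concentration for 50% inhibition of growth. TGI denotes the concentration required for complete inhibition of growth.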 A value given as a limit tells only on which side of the number the result lay.

Take `Clc1ccc(Cc2nc3ccccc3nc2-c2cccc(Cl)c2)cc1`: the TGI with CCRF-CEM leukemia came to 0.174 µM; in the experiment on DU-145 prostate, 40.6 µM; with EKVX NSCLC, 31.9 µM; in the experiment on OVCAR-5 ovarian, 21.2 µM; in the experiment on SF-539 CNS, 4.92 µM; in the experiment with SNB-19 CNS, 3.85 µM.

As for `CCn1c(SCc2nnc(Nc3ccccc3)s2)nc2ccccc2c1=O`, the TGI with CCRF-CEM leukemia is above 85.7 µM; with DU-145 prostate, 36.5 µM; in the experiment with EKVX NSCLC it was 17.3 µM; with OVCAR-5 ovarian, 31.1 µM; with SF-539 CNS it was 19.3 µM; with SNB-19 CNS it was 13.4 µM.

Turning to `COc1ccc(-c2cc(-c3ccc(OC)c(OC)c3)nc(SCCCC(=O)NO)n2)cc1`, the GI50 with CCRF-CEM leukemia was 1.36 µM; in the experiment on DU-145 prostate, 1.53 µM; with EKVX NSCLC it was 1.73 µM; in the experiment on OVCAR-5 ovarian it was 1.53 µM; with SF-539 CNS it was 1.31 µM; in the experiment with SNB-19 CNS, 2.54 µM. For the same molecule, the TGI with CCRF-CEM leukemia was above 100 µM; with DU-145 prostate, 17.7 µM; with EKVX NSCLC it was above 100 µM; in the experiment with OVCAR-5 ovarian, 6.25 µM; in the experiment with SF-539 CNS, 3.48 µM; in the experiment with SNB-19 CNS, 39.1 µM.

Turning to `CCCC(CC)c1cc(O)c(O)cc1C(CC)CCC` (stereo unspecified), the TGI in the experiment on CCRF-CEM leukemia, in the experiment on DU-145 prostate, with EKVX NSCLC, in the experiment on OVCAR-5 ovarian, in the experiment on SF-539 CNS and in the experiment with SNB-19 CNS was above 10 µM each time.

In the case of `CC1Cc2c(cc(N)nc2Br)NC1=O` (stereo unspecified), the TGI with CCRF-CEM leukemia, in the experiment with DU-145 prostate, in the experiment on EKVX NSCLC, in the experiment with OVCAR-5 ovarian, in the experiment on SF-539 CNS and with SNB-19 CNS was above 100 µM each time.

With `CCOC(=O)c1c(SCCN2CCCCC2)n(-c2ccccc2)c(=S)n(-c2ccccc2)c1=O`, the TGI in the experiment on CCRF-CEM leukemia was 11.8 µM; in the experiment on DU-145 prostate, above 55.1 µM; in the experiment with OVCAR-5 ovarian it was above 100 µM; with SNB-19 CNS, above 100 µM.

In the case of `CCOC(=O)COC1=Nc2cc(OC)c(OC)c3nc(Cl)cc(c23)C1=O`, the TGI in the experiment with DU-145 prostate turned out to be 3.32 µM; in the experiment on EKVX NSCLC, 1.83 µM; with OVCAR-5 ovarian, 4.11 µM; with SF-539 CNS, 3.87 µM; with SNB-19 CNS, 22.1 µM.

With `O=C1CCc2cc3c(cc21)C(C(=O)O)CC3` (stereo unspecified), the TGI in the experiment on CCRF-CEM leukemia, in the experiment on DU-145 prostate, in the experiment on EKVX NSCLC, in the experiment with OVCAR-5 ovarian, in the experiment with SF-539 CNS and in the experiment on SNB-19 CNS was above 100 µM each time.

As to `c1cc2c3c(c1)[C@@H]1O[C@@H]1c1cccc(c1-3)[C@@H]1O[C@H]21`, the TGI in the experiment on DU-145 prostate is 38.7 µM; in the experiment with EKVX NSCLC it was 34.4 µM; in the experiment on OVCAR-5 ovarian, 31.4 µM; with SNB-19 CNS it was above 100 µM.

As for `O=c1cnc2cc3ccccc3cc2[nH]1`, the TGI with CCRF-CEM leukemia, in the experiment on EKVX NSCLC, in the experiment on OVCAR-5 ovarian and in the experiment on SNB-19 CNS was above 100 µM each time.

In the case of `O=C1/C(=C/c2cccs2)N=C(c2ccccc2)N1c1nc2ccccc2s1`, the TGI with CCRF-CEM leukemia is 0.976 µM; in the experiment on DU-145 prostate, above 100 µM; in the experiment on EKVX NSCLC, above 100 µM; in the experiment on OVCAR-5 ovarian it was above 100 µM; in the experiment with SF-539 CNS, above 100 µM; with SNB-19 CNS, above 100 µM.

For the molecule `COC(C[C@H]1CCCC[C@]1(O)/C(=C\CO[Si](C(C)C)(C(C)C)C(C)C)Sc1ccccc1)OC`, the TGI in the experiment on CCRF-CEM leukemia, in the experiment with DU-145 prostate, with EKVX NSCLC, in the experiment on OVCAR-5 ovarian and in the experiment on SNB-19 CNS was above 100 µM in each case.

Regarding `COc1ccc(C(=O)/C=C/c2ccc(OCCCOc3ccc(/C=C/C(=O)c4ccc(OC)c(OC)c4)cc3)cc2)cc1OC`, the TGI with CCRF-CEM leukemia, in the experiment with DU-145 prostate, with EKVX NSCLC, with SF-539 CNS and in the experiment on SNB-19 CNS was above 100 µM throughout.

Regarding `OCC1c2ccccc2-n2nc(-c3ccccc3)c(O)c21` (stereo unspecified), the TGI in the experiment on CCRF-CEM leukemia, in the experiment with DU-145 prostate, in the experiment on EKVX NSCLC, in the experiment on OVCAR-5 ovarian, in the experiment with SF-539 CNS and in the experiment on SNB-19 CNS was above 100 µM each time.

In the case of `CN(c1ccc(Cl)cc1)S(=O)(=O)c1ccccc1`, the TGI in the experiment with CCRF-CEM leukemia, in the experiment on DU-145 prostate, with EKVX NSCLC, with OVCAR-5 ovarian, with SF-539 CNS and with SNB-19 CNS was above 100 µM in each case.

In the case of `COC(CC1(CCNc2ccccc2)C(=O)N(COCC[Si](C)(C)C)c2ccccc21)OC` (stereo unspecified), the TGI was above 31.6 µM in the experiment with CCRF-CEM leukemia; 64.7 µM in the experiment with DU-145 prostate; 31.7 µM in the experiment with EKVX NSCLC; 35 µM with OVCAR-5 ovarian; 33.1 µM with SNB-19 CNS.

With `CC(=O)NCC1OC2COC(c3ccccc3)OC2C2N=C(c3ccccc3)OC12` (stereo unspecified), the TGI in the experiment on CCRF-CEM leukemia, in the experiment on DU-145 prostate, in the experiment on EKVX NSCLC, in the experiment with OVCAR-5 ovarian, with SF-539 CNS and in the experiment with SNB-19 CNS was above 100 µM in each case.

For `O=C1Sc2cc3ccccc3cc2C(=O)Sc2cc3ccccc3cc21`, the TGI is 12.5 µM in the experiment on CCRF-CEM leukemia; above 100 µM in the experiment on DU-145 prostate; above 100 µM in the experiment with EKVX NSCLC; above 100 µM in the experiment on OVCAR-5 ovarian; above 100 µM with SF-539 CNS; above 100 µM with SNB-19 CNS.

For `COc1ccc(OC)c(-c2cn3c(n2)sc2ccccc23)c1`, the TGI with CCRF-CEM leukemia, in the experiment on DU-145 prostate, in the experiment on EKVX NSCLC, in the experiment with OVCAR-5 ovarian, with SF-539 CNS and with SNB-19 CNS was above 100 µM in each case.

As to `C/C(=C\COP(=O)(O)OP(=O)(O)O)CC/C=C(\C)CNc1ccccc1`, the TGI in the experiment on CCRF-CEM leukemia was 10.3 µM; in the experiment with DU-145 prostate, above 50 µM; in the experiment with EKVX NSCLC it was above 50 µM; with OVCAR-5 ovarian, above 50 µM; in the experiment with SF-539 CNS it was above 50 µM; in the experiment on SNB-19 CNS it was above 50 µM.
